From patent US7312322B1, “Genetic sequences encoding steroid and juvenile hormone receptor polypeptides and insecticidal modalities therefor” (priority 1998, dated 2007)
Values joined by “and” are separate entries in the source; they are usually repeats but may differ in a detail not shown here. Identical values can stand only once.

Target: T1, EcR polypeptide subunit of the D. melanogaster ecdysone receptor (Drosophila melanogaster, UniProt P34021)
T1 construct: expressed in transfected cells; host or cells: CHO cells
T1 sequence (P34021 1-878): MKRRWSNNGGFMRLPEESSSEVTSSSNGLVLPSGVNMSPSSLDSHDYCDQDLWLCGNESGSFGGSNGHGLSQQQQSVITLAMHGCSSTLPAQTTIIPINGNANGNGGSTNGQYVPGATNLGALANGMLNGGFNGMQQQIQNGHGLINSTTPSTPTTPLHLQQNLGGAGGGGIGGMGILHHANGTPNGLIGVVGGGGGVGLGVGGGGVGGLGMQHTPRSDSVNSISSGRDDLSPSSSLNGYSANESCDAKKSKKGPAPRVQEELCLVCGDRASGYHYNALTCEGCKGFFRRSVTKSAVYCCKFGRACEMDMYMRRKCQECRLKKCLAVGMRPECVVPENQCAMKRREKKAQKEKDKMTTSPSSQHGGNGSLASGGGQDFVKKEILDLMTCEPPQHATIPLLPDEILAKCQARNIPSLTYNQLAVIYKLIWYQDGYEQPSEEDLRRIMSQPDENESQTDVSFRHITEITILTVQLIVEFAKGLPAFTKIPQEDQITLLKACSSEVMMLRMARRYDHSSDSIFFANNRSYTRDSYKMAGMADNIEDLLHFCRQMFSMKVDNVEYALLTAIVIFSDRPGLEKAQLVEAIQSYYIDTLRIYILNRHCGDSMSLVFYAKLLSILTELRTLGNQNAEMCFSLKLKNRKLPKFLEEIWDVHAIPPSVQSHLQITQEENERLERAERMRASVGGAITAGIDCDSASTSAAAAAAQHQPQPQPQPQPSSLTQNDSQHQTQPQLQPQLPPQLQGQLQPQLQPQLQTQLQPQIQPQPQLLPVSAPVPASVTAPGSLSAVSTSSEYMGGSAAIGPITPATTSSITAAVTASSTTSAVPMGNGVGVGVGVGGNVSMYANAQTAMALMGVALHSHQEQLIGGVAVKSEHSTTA
Assay: CHO cell co-transfection CAT reporter assay, pSV40-EcR with p(EcRE)7-CAT
Format: cell-based
Settings: for Fold-induction of expression: 30° C., PNA 20 μM, CHO cells
Protocol: Chinese hamster ovary (CHO) cells were maintained in 50% (v/v) Dubbecco's modified Eagle's medium (DMEM) and 50% (v/v) Hamm F12 nutrient mixture (GIBCO) supplemented with 10% (v/v) foetal bovine serum. Transfection was carried out by the DNA-calcium phosphate co-precipitation method (Ausubel et al, 1992). One day before transfection with the plasmids described in Examples 1 and/or 2, or other expression plasmids, CHO cells were plated out at 5-8×10^5 cells per 6 cm diameter culture dish in the above DMEM/F12 medium. Three hours before the addition of the DNA-calcium phosphate co-precipitate, the cells were washed with phosphate buffered saline (PBS; Sambrook et al., 1989) and cultured in fresh DMEM plus 10% (v/v) foetal bovine serum. The cells were incubated in the presence of the co-precipitate for eighteen hours before excess DNA was removed by washing with PBS. The cells were then cultured for another day in DMEM/F12 supplemented with 10% (v/v) foetal bovine serum with or without added ponasterone A (PNA), before harvesting. Cells were washed with PBS, harvested by mechanical scraping in 0.25 M Tris-HCl (pH 7.8), and disrupted by three freeze-thaw cycles.
All transfections included, in addition to expression and reporter plasmids, a β-galactosidase-expressing plasmid designated pPgK-LacZ (McBurney et al, 1991), which served as an internal control for the efficiency of transfection, and pUC18 DNA in an amount sufficient to produce 10 μg total DNA per culture dish.
The chloramphenicol acetyltransferase (CAT) and β-galactosidase activities encoded by the reporter genes present in the reporter plasmids were assayed as described in Sambrook et al, (1989).
To determine whether the D. melanogaster ecdysone receptor polypeptide is stable at physiological temperatures above about 30° C., CHO cells were transfected as described in Example 3, with the plasmid pSV40-EcR and the reporter plasmid p(EcRE)7-CAT in the presence of PNA, at 30° C. and 37° C.
Briefly, CHO cells were plated out at 37° C. sixteen to twenty hours before transfection. After washing away the DNA, the cells were cultured for two hours in fresh medium with or without hormone and the dishes divided into duplicate sets. One set was cultured for another day at 37° C. before harvesting for CAT and β-galactosidase assays. The other set was cultured for three days at 30° C. before assaying enzyme activities. Results indicated a reduction in the fold-induction of gene expression regulated by the D. melanogaster ecdysone receptor polypeptide at 37° C., compared to the fold-induction at 30° C., as shown in Table 1.

CC(C)CC[C@@H](O)[C@](C)(O)[C@H]1CC[C@@]2(O)C3=CC(=O)[C@@H]4C[C@@H](O)[C@@H](O)C[C@]4(C)[C@H]3CC[C@]12C [PNA, ponasterone A]
Fold-induction of expression (pSV40-EcR 0.1 μg/dish): 39X and 25X | Fold-induction of expression (pSV40-EcR 0.5 μg/dish): 26X and 33X | Fold-induction of expression (pSV40-EcR 2.5 μg/dish): 35X and 54X | induction of CAT activity (CHO cells co-transfected with p(EcRE)7-CAT and pSV40-EcR, in the presence of PNA): 50 units of activity
